# Laboratory results as given in PubChem BioAssay AID2060909 (Molecular Pharmacology Branch, DTP, NCI, 2025).
# Test system: 362531-283-R-J2-PDC complex spheroid viability
# Assay: Anticancer human tumor 362531-283-R-J2-PDC patient-derived colon adenocarcinoma cell line growth inhibition [RAS]
# Conditions: for viability, T/C: stronger effect = lower value
# Method in brief: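 Multi-cell-type spheroids: tumor cells plus HUVEC endothelial cells and mesenchymal stem cells. RAS-pathway inhibitors were combined with targeted agents, each dosed in half-log steps down from clinical Cmax, or from 10 microM when Cmax was unknown.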
# [1] = curve of first compound, second compound 0.000949 µM
# [2] = curve of first compound, second compound 0.003 µM
# [3] = curve of first compound, second compound 0.00949 µM
# [4] = curve of first compound, second compound 0.03 µM
# [5] = curve of first compound, second compound 0.0949 µM
# [6] = curve of first compound, second compound 0.3 µM
# [7] = second compound 0.000949 µM, first compound 0.0316 µM
# [8] = second compound 0.000949 µM, first compound 0.1 µM
# [9] = second compound 0.003 µM, first compound 0.0316 µM
# [10] = second compound 0.003 µM, first compound 0.1 µM
# [11] = second compound 0.00949 µM, first compound 0.0316 µM
# [12] = second compound 0.00949 µM, first compound 0.1 µM
# [13] = second compound 0.03 µM, first compound 0.0316 µM
# [14] = second compound 0.03 µM, first compound 0.1 µM
# [15] = second compound 0.0949 µM, first compound 0.0316 µM
# [16] = second compound 0.0949 µM, first compound 0.1 µM
# [17] = second compound 0.3 µM, first compound 0.0316 µM
# [18] = second compound 0.3 µM, first compound 0.1 µM
# 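Note: spheroids exposed to the agents for 7 days before readout.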
# 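Throughout, for viability, T/C: luminescence viability as percent of DMSO vehicle control wells.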
smiles,measurement,setting,value
CC(=O)OC12COC1CC(O)C1(C)C(=O)C(O)C3=C(C)C(OC(=O)C(O)C(NC(=O)OC(C)(C)C)c4ccccc4)CC(O)(C(OC(=O)c4ccccc4)C21)C3(C)C (configuration not stated) + CCn1c(-c2cc(N3CCN(C)CC3)cnc2C(C)OC)c2c3cc(ccc31)-c1csc(n1)CC(NC(=O)C1CC1C)C(=O)N1CCCC(N1)C(=O)OCC(C)(C)C2,IC50,[1],214 nM
same,IC50,[2],215 nM
same,IC50,[3],192 nM
same,IC50,[4],164 nM
same,IC50,[5],137 nM
same,IC50,[6],< 31.6 nM
same,"viability, T/C",[7],92.9%
same,"viability, T/C",[8],95.2%
same,"viability, T/C","second compound 0.000949 µM, first compound 0.316 µM",27.5%
same,"viability, T/C","second compound 0.000949 µM, first compound 1 µM",16.7%
same,"viability, T/C","second compound 0.000949 µM, first compound 3.16 µM",18.1%
same,"viability, T/C","second compound 0.000949 µM, first compound 10 µM",31.9%
same,"viability, T/C",[9],103%
same,"viability, T/C",[10],92.7%
same,"viability, T/C","second compound 0.003 µM, first compound 0.316 µM",28.7%
same,"viability, T/C","second compound 0.003 µM, first compound 1 µM",13.6%
same,"viability, T/C","second compound 0.003 µM, first compound 3.16 µM",19.1%
same,"viability, T/C","second compound 0.003 µM, first compound 10 µM",19.9%
same,"viability, T/C",[11],94.2%
same,"viability, T/C",[12],91%
same,"viability, T/C","second compound 0.00949 µM, first compound 0.316 µM",18.8%
same,"viability, T/C","second compound 0.00949 µM, first compound 1 µM",12.9%
same,"viability, T/C","second compound 0.00949 µM, first compound 3.16 µM",9.58%
same,"viability, T/C","second compound 0.00949 µM, first compound 10 µM",15.8%
same,"viability, T/C",[13],76.8%
same,"viability, T/C",[14],77.5%
same,"viability, T/C","second compound 0.03 µM, first compound 0.316 µM",14.2%
same,"viability, T/C","second compound 0.03 µM, first compound 1 µM",7.82%
same,"viability, T/C","second compound 0.03 µM, first compound 3.16 µM",8.32%
same,"viability, T/C","second compound 0.03 µM, first compound 10 µM",11.6%
same,"viability, T/C",[15],68.7%
same,"viability, T/C",[16],65.5%
same,"viability, T/C","second compound 0.0949 µM, first compound 0.316 µM",9.07%
same,"viability, T/C","second compound 0.0949 µM, first compound 1 µM",7.86%
same,"viability, T/C","second compound 0.0949 µM, first compound 3.16 µM",8.53%
same,"viability, T/C","second compound 0.0949 µM, first compound 10 µM",7.69%
same,"viability, T/C",[17],43.2%
same,"viability, T/C",[18],20.1%
same,"viability, T/C","second compound 0.3 µM, first compound 0.316 µM",7.36%
same,"viability, T/C","second compound 0.3 µM, first compound 1 µM",4.87%
same,"viability, T/C","second compound 0.3 µM, first compound 3.16 µM",5.33%
same,"viability, T/C","second compound 0.3 µM, first compound 10 µM",4.75%
O=C(c1ccc(F)c(F)c1Nc1ccc(I)cc1F)N1CC(O)([C@@H]2CCCCN2)C1,"viability, T/C",compound 0.00316 µM,100% [middle of 4 runs]
same,"viability, T/C",compound 0.01 µM,94.8% [middle of 4 runs]
same,"viability, T/C",compound 0.1 µM,90.7% [middle of 4 runs]
same,"viability, T/C",compound 0.316 µM,64.7% [middle of 4 runs]
same,"viability, T/C",compound 1 µM,19% [middle of 4 runs]
same,IC50,curve of compound,507 nM [middle of 4 runs]
CC(C)n1nc(-c2ccc3oc(N)nc3c2)c2c(N)ncnc21 + CCn1c(-c2cccnc2C(C)OC)c2c3cc(ccc31)N1CCOC(CC(NC(=O)C(C(C)C)N(C)C(=O)C3(F)CCN(C(=O)C#CC(C)(C)N(C)C)CC3)C(=O)N3CCCC(N3)C(=O)OCC(C)(C)C2)C1,IC50,[1],70.8 nM
same,IC50,[2],85.7 nM
same,IC50,[3],52.3 nM
same,IC50,[4],68.6 nM
same,IC50,[5],73.3 nM
same,IC50,[6],65.4 nM
same,"viability, T/C","second compound 0.000949 µM, first compound 0.000316 µM",95.5%
same,"viability, T/C","second compound 0.000949 µM, first compound 0.001 µM",98.7%
same,"viability, T/C","second compound 0.000949 µM, first compound 0.00316 µM",108%
same,"viability, T/C","second compound 0.000949 µM, first compound 0.01 µM",96.2%
same,"viability, T/C",[7],75%
same,"viability, T/C",[8],39.4%
same,"viability, T/C","second compound 0.003 µM, first compound 0.000316 µM",99.9%
same,"viability, T/C","second compound 0.003 µM, first compound 0.001 µM",92.8%
same,"viability, T/C","second compound 0.003 µM, first compound 0.00316 µM",102%
same,"viability, T/C","second compound 0.003 µM, first compound 0.01 µM",92.2%
same,"viability, T/C",[9],74.5%
same,"viability, T/C",[10],46.2%
same,"viability, T/C","second compound 0.00949 µM, first compound 0.000316 µM",98.9%
same,"viability, T/C","second compound 0.00949 µM, first compound 0.001 µM",108%
same,"viability, T/C","second compound 0.00949 µM, first compound 0.00316 µM",92.9%
same,"viability, T/C","second compound 0.00949 µM, first compound 0.01 µM",114%
same,"viability, T/C",[11],57.3%
same,"viability, T/C",[12],40.6%
same,"viability, T/C","second compound 0.03 µM, first compound 0.000316 µM",103%
same,"viability, T/C","second compound 0.03 µM, first compound 0.001 µM",93%
same,"viability, T/C","second compound 0.03 µM, first compound 0.00316 µM",107%
same,"viability, T/C","second compound 0.03 µM, first compound 0.01 µM",95.5%
same,"viability, T/C",[13],63.9%
same,"viability, T/C",[14],43.2%
same,"viability, T/C","second compound 0.0949 µM, first compound 0.000316 µM",90.4%
same,"viability, T/C","second compound 0.0949 µM, first compound 0.001 µM",93.9%
same,"viability, T/C","second compound 0.0949 µM, first compound 0.00316 µM",95.5%
same,"viability, T/C","second compound 0.0949 µM, first compound 0.01 µM",106%
same,"viability, T/C",[15],68.7%
same,"viability, T/C",[16],43.1%
same,"viability, T/C","second compound 0.3 µM, first compound 0.000316 µM",87.9%
same,"viability, T/C","second compound 0.3 µM, first compound 0.001 µM",105%
same,"viability, T/C","second compound 0.3 µM, first compound 0.00316 µM",103%
same,"viability, T/C","second compound 0.3 µM, first compound 0.01 µM",103%
same,"viability, T/C",[17],71.8%
same,"viability, T/C",[18],37.3%
CCN1CCN(Cc2ccc(Nc3ncc(F)c(-c4cc(F)c5nc(C)n(C(C)C)c5c4)n3)nc2)CC1 + C=CC(=O)N1CCN(c2nc(OCC3CCCN3C)nc3c(F)c(-c4nc(N)cc(C)c4C(F)(F)F)c(Cl)cc23)C(C)C1,IC50,"curve of first compound, second compound 0.00316 µM",> 1000 nM
same,IC50,"curve of first compound, second compound 0.01 µM",> 1000 nM
same,IC50,"curve of first compound, second compound 0.0316 µM",> 1000 nM
same,IC50,"curve of first compound, second compound 0.1 µM",> 1000 nM
same,IC50,"curve of first compound, second compound 0.316 µM",> 1000 nM
same,IC50,"curve of first compound, second compound 1 µM",> 1000 nM
same,"viability, T/C","second compound 0.00316 µM, first compound 0.00316 µM",108%
same,"viability, T/C","second compound 0.00316 µM, first compound 0.01 µM",99.2%
same,"viability, T/C","second compound 0.00316 µM, first compound 0.0316 µM",106%
same,"viability, T/C","second compound 0.00316 µM, first compound 0.1 µM",76%
same,"viability, T/C","second compound 0.00316 µM, first compound 0.316 µM",66.9%
same,"viability, T/C","second compound 0.00316 µM, first compound 1 µM",80.2%
same,"viability, T/C","second compound 0.01 µM, first compound 0.00316 µM",93.5%
same,"viability, T/C","second compound 0.01 µM, first compound 0.01 µM",101%
same,"viability, T/C","second compound 0.01 µM, first compound 0.0316 µM",88.2%
same,"viability, T/C","second compound 0.01 µM, first compound 0.1 µM",78.3%
same,"viability, T/C","second compound 0.01 µM, first compound 0.316 µM",66.7%
same,"viability, T/C","second compound 0.01 µM, first compound 1 µM",71.4%
same,"viability, T/C","second compound 0.0316 µM, first compound 0.00316 µM",99.1%
same,"viability, T/C","second compound 0.0316 µM, first compound 0.01 µM",94.3%
same,"viability, T/C","second compound 0.0316 µM, first compound 0.0316 µM",96.7%
same,"viability, T/C","second compound 0.0316 µM, first compound 0.1 µM",68.3%
same,"viability, T/C","second compound 0.0316 µM, first compound 0.316 µM",66.9%
same,"viability, T/C","second compound 0.0316 µM, first compound 1 µM",100%
same,"viability, T/C","second compound 0.1 µM, first compound 0.00316 µM",102%
same,"viability, T/C","second compound 0.1 µM, first compound 0.01 µM",108%
same,"viability, T/C","second compound 0.1 µM, first compound 0.0316 µM",98.8%
same,"viability, T/C","second compound 0.1 µM, first compound 0.1 µM",70%
same,"viability, T/C","second compound 0.1 µM, first compound 0.316 µM",73.3%
same,"viability, T/C","second compound 0.1 µM, first compound 1 µM",82.5%
same,"viability, T/C","second compound 0.316 µM, first compound 0.00316 µM",114%
same,"viability, T/C","second compound 0.316 µM, first compound 0.01 µM",94.8%
same,"viability, T/C","second compound 0.316 µM, first compound 0.0316 µM",101%
same,"viability, T/C","second compound 0.316 µM, first compound 0.1 µM",73%
same,"viability, T/C","second compound 0.316 µM, first compound 0.316 µM",77.9%
same,"viability, T/C","second compound 0.316 µM, first compound 1 µM",81.1%
same,"viability, T/C","second compound 1 µM, first compound 0.00316 µM",102%
same,"viability, T/C","second compound 1 µM, first compound 0.01 µM",108%
same,"viability, T/C","second compound 1 µM, first compound 0.0316 µM",94.6%
same,"viability, T/C","second compound 1 µM, first compound 0.1 µM",70.8%
same,"viability, T/C","second compound 1 µM, first compound 0.316 µM",69.9%
same,"viability, T/C","second compound 1 µM, first compound 1 µM",72.9%
